Assay results from the CheMixHub viscosity set.

Assay: xn = mol fraction of the nth substance listed

C1CCCCC1 + CCCCCCCCCC
Conditions	viscosity [mPa·s]
298.15 K, 101 kPa, x2 = 0.1357	0.8838
298.15 K, 101 kPa, x2 = 0.1638	0.8739
298.15 K, 101 kPa, x2 = 0.1909	0.8684
298.15 K, 101 kPa, x2 = 0.2292	0.8595
298.15 K, 101 kPa, x2 = 0.2677	0.8527
298.15 K, 101 kPa, x2 = 0.2769	0.8484
298.15 K, 101 kPa, x2 = 0.316	0.8438
298.15 K, 101 kPa, x2 = 0.3563	0.8348
298.15 K, 101.33 kPa, x1 = 0.1037	0.836
298.15 K, 101.33 kPa, x1 = 0.1316	0.8418
298.15 K, 101.33 kPa, x1 = 0.2065	0.824
298.15 K, 101.33 kPa, x1 = 0.254	0.8386
298.15 K, 101.33 kPa, x1 = 0.3077	0.818
298.15 K, 101.33 kPa, x1 = 0.3302	0.8292
298.15 K, 101.33 kPa, x1 = 0.4003	0.818
298.15 K, 101.33 kPa, x1 = 0.467	0.8331
298.15 K, 101.33 kPa, x1 = 0.5005	0.818
298.15 K, 101.33 kPa, x1 = 0.5494	0.8222
298.15 K, 101.33 kPa, x1 = 0.6	0.814
298.15 K, 101.33 kPa, x1 = 0.6289	0.8303
298.15 K, 101.33 kPa, x1 = 0.7015	0.8247
298.15 K, 101.33 kPa, x1 = 0.7045	0.812
298.15 K, 101.33 kPa, x1 = 0.7719	0.8409
298.15 K, 101.33 kPa, x1 = 0.802	0.819
298.15 K, 101.33 kPa, x1 = 0.8324	0.8412
298.15 K, 101.33 kPa, x1 = 0.8857	0.8612
298.15 K, 101.33 kPa, x1 = 0.9001	0.845
298.15 K, 101.33 kPa, x1 = 0.9309	0.8746
298.15 K, 101.33 kPa, x2 = 0.0178	0.8968
303.15 K, 101.33 kPa, x1 = 0.1037	0.78
303.15 K, 101.33 kPa, x1 = 0.2065	0.766
303.15 K, 101.33 kPa, x1 = 0.3077	0.761
303.15 K, 101.33 kPa, x1 = 0.4003	0.761
303.15 K, 101.33 kPa, x1 = 0.5005	0.76
303.15 K, 101.33 kPa, x1 = 0.6	0.756
303.15 K, 101.33 kPa, x1 = 0.7045	0.754
303.15 K, 101.33 kPa, x1 = 0.802	0.759
303.15 K, 101.33 kPa, x1 = 0.9001	0.78
308.15 K, 101 kPa, x1 = 0.0439	0.7345
308.15 K, 101 kPa, x1 = 0.175	0.7272
308.15 K, 101 kPa, x1 = 0.2106	0.7254
308.15 K, 101 kPa, x1 = 0.3096	0.7164
308.15 K, 101 kPa, x1 = 0.3863	0.7147
308.15 K, 101 kPa, x1 = 0.4943	0.7122
308.15 K, 101 kPa, x1 = 0.5864	0.7133
308.15 K, 101 kPa, x1 = 0.7303	0.7189
308.15 K, 101 kPa, x1 = 0.8805	0.7325
308.15 K, 101 kPa, x1 = 0.9385	0.7399
308.15 K, 101.33 kPa, x1 = 0.1037	0.728
308.15 K, 101.33 kPa, x1 = 0.2065	0.713
308.15 K, 101.33 kPa, x1 = 0.3077	0.708
308.15 K, 101.33 kPa, x1 = 0.4003	0.71
308.15 K, 101.33 kPa, x1 = 0.5005	0.71
308.15 K, 101.33 kPa, x1 = 0.6	0.702
308.15 K, 101.33 kPa, x1 = 0.7045	0.699
308.15 K, 101.33 kPa, x1 = 0.802	0.703
308.15 K, 101.33 kPa, x1 = 0.9001	0.716
313.15 K, 101 kPa, x1 = 0.0439	0.6849
313.15 K, 101 kPa, x1 = 0.175	0.6717
313.15 K, 101 kPa, x1 = 0.2106	0.6706
313.15 K, 101 kPa, x1 = 0.3096	0.666
313.15 K, 101 kPa, x1 = 0.3863	0.6618
313.15 K, 101 kPa, x1 = 0.4943	0.6596
313.15 K, 101 kPa, x1 = 0.5864	0.6577
313.15 K, 101 kPa, x1 = 0.7303	0.6684
313.15 K, 101 kPa, x1 = 0.8805	0.6936
313.15 K, 101 kPa, x1 = 0.9385	0.7077

CC(=O)OC(C)C(C)C (configuration not stated) + C=CC#N
viscosity [mPa·s], 101.33 kPa
Conditions	x2 = 0.096	x2 = 0.1903	x2 = 0.287	x2 = 0.3796	x2 = 0.4771	x2 = 0.582	x2 = 0.6783	x2 = 0.7861	x2 = 0.894
298.15 K	0.761	0.726	0.684	0.641	0.595	0.54	0.493	0.44	0.388
303.15 K	0.71	0.681	0.641	0.601	0.558	0.51	0.465	0.417	0.37
308.15 K	0.663	0.639	0.604	0.565	0.526	0.48	0.44	0.396	0.353

COC(C)=O + CCCCCC
Conditions	viscosity [mPa·s]
298.15 K, 101 kPa, x1 = 0.0412	0.29
298.15 K, 101 kPa, x1 = 0.1497	0.289
298.15 K, 101 kPa, x1 = 0.2521	0.291
298.15 K, 101 kPa, x1 = 0.3502	0.295
298.15 K, 101 kPa, x1 = 0.4406	0.3
298.15 K, 101 kPa, x1 = 0.4839	0.303
298.15 K, 101 kPa, x1 = 0.5505	0.309
298.15 K, 101 kPa, x1 = 0.6499	0.32
298.15 K, 101 kPa, x1 = 0.7508	0.334
298.15 K, 101 kPa, x1 = 0.8488	0.351
298.15 K, 101 kPa, x1 = 0.941	0.37
298.15 K, 101.3 kPa, x1 = 0.1056	0.2969
298.15 K, 101.3 kPa, x1 = 0.2943	0.2941
298.15 K, 101.3 kPa, x1 = 0.4514	0.2996
298.15 K, 101.3 kPa, x1 = 0.5616	0.3071
298.15 K, 101.3 kPa, x1 = 0.6895	0.3189
298.15 K, 101.3 kPa, x1 = 0.7175	0.3223
298.15 K, 101.3 kPa, x1 = 0.8224	0.342
298.15 K, 101.3 kPa, x1 = 0.9171	0.365
303.15 K, 101.3 kPa, x1 = 0.1069	0.276
303.15 K, 101.3 kPa, x1 = 0.204	0.2755
303.15 K, 101.3 kPa, x1 = 0.306	0.2772
303.15 K, 101.3 kPa, x1 = 0.406	0.2809
303.15 K, 101.3 kPa, x1 = 0.4998	0.2857
303.15 K, 101.3 kPa, x1 = 0.602	0.2937
303.15 K, 101.3 kPa, x1 = 0.6984	0.3048
303.15 K, 101.3 kPa, x1 = 0.8014	0.3165
303.15 K, 101.3 kPa, x1 = 0.8998	0.3298
308.15 K, 101 kPa, x1 = 0.0412	0.272
308.15 K, 101 kPa, x1 = 0.1497	0.271
308.15 K, 101 kPa, x1 = 0.2521	0.273
308.15 K, 101 kPa, x1 = 0.3502	0.276
308.15 K, 101 kPa, x1 = 0.4406	0.28
308.15 K, 101 kPa, x1 = 0.4839	0.283
308.15 K, 101 kPa, x1 = 0.5505	0.288
308.15 K, 101 kPa, x1 = 0.6499	0.297
308.15 K, 101 kPa, x1 = 0.7508	0.309
308.15 K, 101 kPa, x1 = 0.8488	0.323
308.15 K, 101 kPa, x1 = 0.941	0.339

COC(C)=O + CCCCCCCC
298.15 K, 101.3 kPa
Conditions	viscosity [mPa·s]
x1 = 0.1268	0.4797
x1 = 0.2408	0.4518
x1 = 0.337	0.4361
x1 = 0.431	0.4213
x1 = 0.5066	0.4108
x1 = 0.5788	0.4021
x1 = 0.644	0.3953
x1 = 0.757	0.3849
x1 = 0.8528	0.3786
